One data set has as its system Sindbis virus SINV. The data set is described as follows: microbe, parasite or virus in culture. The conditions noted are these: Vero, 24 h, read-out: SINV EC50 (µM).
Data set [1] is described as follows: in vitro. Conditions: hamster, bhk-21 cells.
The subject of another data set is Chikungunya virus CHIKV. In words: microbe, parasite or virus in culture. The conditions noted are these: Vero, 24 h, read-out: CHIKV EC50 (µM).
Data set [2] in a line: in vitro. Conditions: african green monkey, vero cells.

For the molecule `C[C@H]1CC[C@]2(NC1)O[C@H]1C[C@H]3[C@@H]4CC[C@H]5C[C@@H](O)CC[C@]5(C)[C@H]4CC[C@]3(C)[C@H]1[C@@H]2C` [Tomatidine], the EC50 – broadly, the concentration giving half of the maximal effect – in the data set with Sindbis virus SINV is 2.47 µM; in the data set on Chikungunya virus CHIKV, 5.35 µM. Besides, the CC50 (usually the concentration at which the toxic effect on the cells reaches its halfway point) at 24 h came out at 23.8 µM in the data set “in vitro [1]” and 17.2 µM in the data set “in vitro [2]”.

With `O=C1Nc2ccc(Cl)cc2[C@@](C#CC2CC2)(C(F)(F)F)O1` [efavirenz], the values for the EC50 in the data set with Sindbis virus SINV and in the data set with Chikungunya virus CHIKV were 0.72 µM and 1.33 µM, respectively. Further, the CC50 at 24 h turned out to be 40.9 µM in the data set “in vitro [1]” and 53.6 µM in “in vitro [2]”.

For the origin of these results see publication doi:10.1101/2023.09.29.560149v2 (biorxiv, 2024).
